The source of these data is PMC12373846, “Hemoglobin as a pseudoperoxidase and drug target for oxidative stress-related diseases” (Signal Transduction and Targeted Therapy, 2025).

The target of one experiment is T1, HRP (Armoracia rusticana, UniProt P00433).
T1 sequence (P00433 31-353): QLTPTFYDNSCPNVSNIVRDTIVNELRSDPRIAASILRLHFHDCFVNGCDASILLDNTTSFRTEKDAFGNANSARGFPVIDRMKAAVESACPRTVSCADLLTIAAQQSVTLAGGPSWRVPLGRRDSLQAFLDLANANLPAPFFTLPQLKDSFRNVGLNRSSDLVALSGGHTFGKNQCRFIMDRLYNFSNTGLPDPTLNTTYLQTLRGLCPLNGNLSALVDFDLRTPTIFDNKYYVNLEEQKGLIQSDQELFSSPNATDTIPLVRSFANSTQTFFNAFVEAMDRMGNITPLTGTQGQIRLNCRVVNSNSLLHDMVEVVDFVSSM
The experiment in a line: Amplex Red H2O2 assay (HRP-dependent). In kind it is biochemical, horseradish. To be noted: Fig. 1b; read-out: EC50, dose-response in Amplex Red assay. The procedure: Hb (Sigma‒Aldrich, H7379), H2O2 (Sigma‒Aldrich, H1009), and Amplex Red reagents (Invitrogen, A12222) were obtained for the study. A 4 μM H2O2 solution was prepared in 50 mM sodium phosphate buffer (pH 7.2). Then, 49 μl of this mixture was mixed with 1 μl of the test compound in DMSO or distilled water. The mixture was combined with an assay mixture of Amplex Red reagent (20 mM stock to 0.1 mM) and HRP (200 U/ml stock to 0.2 U/ml) and added to the wells at 50 μl/well. After a 60-min incubation at 37 °C, resorufin production was quantified via a microplate fluorescence reader (SpectraMax iD5, Molecular Devices) at ex/em = 535/580 nm. The H2O2-decomposing activity was estimated via the following equation: (sample fluorescence-blank fluorescence)/(control […]-blank fluorescence) × 100. For the ROS-Glo assay, the H2O2 substrate solution and ROS-Glo detection solution were prepared according to the manufacturer’s instructions. 10 μM H2O2 and drugs were prepared as in the Amplex Red assay, with HRP, Hb, CAT, or GPx added as needed. […] Luminescence was measured via iD5 microplate readers. The H2O2-decomposing activity was estimated via the following equation: (sample luminescence-blank luminescence)/(control luminescence-blank luminescence) × 100. The U/ml was calculated on the basis of the amount of H2O2 reduced by Hb during the reaction, using μg/ml and U/mg.

In a further experiment the test system is 97 kinases. Nature of the experiment: KINOMEscan scanEDGE selectivity score. Conditions: 10000 nM. In kind it is binding, human. As for the experimental part: The possibility of KDS12025 on kinase off-target, the KINOMEscan panel of scanEDGE assay was conducted in DiscoverX (CA, USA) using a site-directed competition binding with the test compounds. The assay results are given in Supplementary Table 4 and experimental information is available on the DiscoverX web page (www.discoverx.com). Moreover, the Delta SafetyScreen87 panel assay was conducted in Eurofins Discovery (Cerep, France). The assay results are given in Supplementary Table 5 and experimental information is available on the DiscoverX web page (https://www.eurofinsdiscoveryservices.com).

Experiment [1] deals with primary cultured hippocampal astrocytes. The experiment in a line: oROS-G intracellular H2O2 imaging. The class given is cell-based, mouse. Conditions: for oROS-G intensity: Fig. 6e. The procedure: Primary hippocampal astrocytes were obtained from postnatal day 0‒2 (P0‒2) C57BL/6 mice as previously described.[73] The hippocampal tissue was dissected free of meninges, minced, and dissociated into a single-cell suspension by trituration. The cells were grown in Dulbecco’s modified Eagle’s medium supplemented with D-glucose (4500 mg/L), L-glutamine, sodium pyruvate (110 mg/L), 10% heat-inactivated horse serum, 10% heat-inactivated fetal bovine serum, and 1000 U/ml penicillin‒streptomycin. The cells were maintained at 37 °C in a humidified atmosphere containing 5% CO2.
H2O2 specific, highly sensitive, and fast on-and-off kinetics, a genetically encoded oROS-G plasmid kindly provided by Dr. Andre Berndt. oROS-G was cloned under the GFAP104 promoter and delivered into primary cultured hippocampal astrocytes via the NeoN^TM transfection system (Invitrogen). The cells were treated with various concentrations of Aβ (1 to 10 μM) or 6-OHDA (Tocris, 2547; 10 to 50 μM) to induce aberrant H2O2. For subsequent experiments, 5 μM Aβ and 30 μM 6-OHDA were selected on the basis of initial dose‒response studies. KDS12025 (10 μM) and sodium pyruvate (1 mM) were applied as indicated in each experiment. For live-cell imaging, astrocytes were maintained in a humidified chamber at 37 °C with 5% […] during imaging to preserve physiological conditions. Changes in the fluorescence of oROS-G were recorded via an A1 Nikon confocal microscope equipped with a temperature- and humidity-controlled stage. Images were captured every 20 min for up to 40 h (20for the 6-OHDA experiments) via the NIS-Elements software (Nikon, Japan) for time-lapse imaging. The excitation and emission wavelengths for oROS-G fluorescence were set to 485 nm and 538 nm, respectively. Endpoint fluorescence measurements were also collected for KDS12025 dose-dependent experiments. To analyze the fluorescence intensity, individual regions of interest (ROIs) were manually selected for each astrocyte via NIS-Elements software (Nikon, Japan). The fluorescence intensity changes were normalized to the baseline values (ΔF/F0) to quantify the H2O2 dynamics. To determine the EC50 of KDS12025, endpoint fluorescence intensity data from oROS-G experiments were normalized to those of the Aβ+vehicle control group. The normalized data were analyzed via GraphPad Prism software to fit a four-parameter logistic curve, yielding the EC50 value for the H2O2-decomposing activity of KDS12025.

pEC50: −log10 of the molar value.

For the molecule `O=C(O)c1cc(NCCc2ccc(C(F)(F)F)cc2)ccc1O` [HTPEB, 2-hydroxy-5-[2-(4-trifluoromethyl-phenyl)-ethylamino]-benzoic acid, reference compound], on HRP, the pEC50 (usually the negative decadic logarithm of the EC50, by convention in mol/L) was 5.74.

`CNc1ccc(NCCc2ccccc2OC)cc1.Cl` [KDS12025, N^1-(2-methoxyphenethyl)-N^4-methylbenzene-1,4-diamine hydrochloride salt]: in the experiment with 97 kinases, the “Number of Hits, S(1)” value is 0. Also, the “Number of Hits, S(10)” value in the experiment on 97 kinases was found to be 0. For the same molecule, the “Number of Hits, S(35)” value in the experiment on 97 kinases turned out to be 0. Moreover, the “oROS-G H2O2 level” value in experiment [1] (6-OHDA 30 μM + KDS12025, Fig. 3k) is reported as 123.4±9.7. Moreover, the “oROS-G H2O2 level, 40-h imaging” value in experiment [1] (Aβ 5 μM + KDS12025 10 μM, Fig. 3h) worked out at 111.8±4.968; in experiment [1] (putrescine 180 μM + KDS12025 10 μM, Fig. 3i) it was 96.12±6.634. The oROS-G intensity in experiment [1] (Hbβ-shRNA, Aβ 5 μM + 0.1μM) is on record as 199.3; in experiment [1] (Hbβ-shRNA, Aβ 5 μM + 1μM) it was 204.7; in experiment [1] (Hbβ-shRNA, Aβ 5 μM + 10μM), 182.4; in experiment [1] (Sc-shRNA, Aβ 5 μM + 0.1μM) it was 100.5±13.5; in experiment [1] (Sc-shRNA, Aβ 5 μM + 1μM), 112.3±24.1; in experiment [1] (Sc-shRNA, Aβ 5 μM + 10μM), 83.4±13.5. Further, in experiment [1] (Mus musculus, Astrocyte, Aβ 5 µM-treated astrocytes, oROS-G endpoint, read-out: EC50, reduction of Aβ-induced H2O2), the pEC50 is 6.30.
